Experiments:
[1] = target: T1, F508delCFTR (Homo sapiens, UniProt P13569, DEL508-508); assay: Cell Surface Expression-Horse Radish Peroxidase (CSE-HRP) assay, test compound with co-corrector; assay type: cell-based; details: for Maximum % activity (with co-corrector): maximum at any tested concentration;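 for Maximum % activity (with co-corrector): percent of 2 µM positive control corrector over DMSO; co-corrector is that same compound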
T1 construct: expressed in transfected cells; host or cells: CFBE41o- human lung-derived epithelial cells (CFBE41o-F508delCFTR-HRP), doxycycline-inducible
T1 sequence (P13569 with tags, fused parts or gaps DEL508-508): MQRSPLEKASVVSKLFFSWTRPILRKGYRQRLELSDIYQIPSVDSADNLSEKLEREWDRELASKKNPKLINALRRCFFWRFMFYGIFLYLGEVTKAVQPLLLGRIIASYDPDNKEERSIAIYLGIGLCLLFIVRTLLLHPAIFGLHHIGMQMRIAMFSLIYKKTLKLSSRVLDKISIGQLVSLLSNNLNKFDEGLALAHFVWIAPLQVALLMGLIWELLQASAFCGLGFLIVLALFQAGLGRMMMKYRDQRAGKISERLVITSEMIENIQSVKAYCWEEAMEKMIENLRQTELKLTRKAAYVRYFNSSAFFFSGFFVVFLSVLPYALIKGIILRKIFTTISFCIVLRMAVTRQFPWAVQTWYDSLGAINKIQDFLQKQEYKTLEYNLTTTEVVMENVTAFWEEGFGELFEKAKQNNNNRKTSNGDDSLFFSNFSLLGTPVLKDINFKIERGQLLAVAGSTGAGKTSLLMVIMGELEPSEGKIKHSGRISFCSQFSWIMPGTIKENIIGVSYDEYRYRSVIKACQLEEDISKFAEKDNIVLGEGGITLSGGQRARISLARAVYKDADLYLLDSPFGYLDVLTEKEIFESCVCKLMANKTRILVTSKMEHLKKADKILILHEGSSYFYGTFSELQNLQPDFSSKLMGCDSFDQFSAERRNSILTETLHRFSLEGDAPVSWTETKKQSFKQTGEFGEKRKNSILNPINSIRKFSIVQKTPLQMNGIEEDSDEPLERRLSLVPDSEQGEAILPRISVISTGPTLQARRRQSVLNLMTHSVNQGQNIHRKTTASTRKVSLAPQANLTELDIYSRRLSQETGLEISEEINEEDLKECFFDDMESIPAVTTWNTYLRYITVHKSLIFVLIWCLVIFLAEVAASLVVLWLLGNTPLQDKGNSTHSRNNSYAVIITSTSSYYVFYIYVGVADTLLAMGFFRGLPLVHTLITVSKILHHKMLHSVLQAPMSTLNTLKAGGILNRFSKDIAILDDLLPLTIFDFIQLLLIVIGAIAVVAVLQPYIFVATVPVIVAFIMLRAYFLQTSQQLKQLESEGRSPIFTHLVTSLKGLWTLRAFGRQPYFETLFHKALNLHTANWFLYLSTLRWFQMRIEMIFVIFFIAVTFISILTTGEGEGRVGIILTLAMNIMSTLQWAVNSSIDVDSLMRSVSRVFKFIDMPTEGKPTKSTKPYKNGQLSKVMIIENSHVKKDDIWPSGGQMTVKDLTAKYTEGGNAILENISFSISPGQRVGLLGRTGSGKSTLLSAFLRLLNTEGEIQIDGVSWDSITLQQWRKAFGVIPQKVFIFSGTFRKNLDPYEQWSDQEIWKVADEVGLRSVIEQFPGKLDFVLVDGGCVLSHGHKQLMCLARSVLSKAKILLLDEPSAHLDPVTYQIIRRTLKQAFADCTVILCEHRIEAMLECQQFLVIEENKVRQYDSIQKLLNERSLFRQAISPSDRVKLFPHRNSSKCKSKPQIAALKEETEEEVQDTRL
Outline: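 CFBE41o- cells expressing F508delCFTR with HRP in the fourth exofacial loop, induced with 0.5 μg/mL doxycycline for 72 h, then treated 18-24 h at 33° C. with compound (8 points, top 20 μM, 3-fold) plus 2 μM co-corrector. Surface HRP read by luminol luminescence; activity normalised to positive control, EC50 from variable-slope sigmoidal fit.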

[2] = target: T1, F508delCFTR; assay: Cell Surface Expression-Horse Radish Peroxidase (CSE-HRP) assay, test compound without co-corrector; assay type: cell-based; details: for Emax: maximum at any tested concentration, without co-corrector; for EC50: test compound without co-corrector;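 for Emax: percent of on-plate 2 µM positive control corrector response over DMSO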
Outline: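 CFBE41o- cells expressing F508delCFTR with HRP in the fourth exofacial loop, induced with 0.5 μg/mL doxycycline for 72 h at 37° C, then exposed to compound alone for 18-24 h at 33° C, 8-point 3-fold series from 20 μM. Surface HRP read by luminol luminescence, normalized to positive corrector control versus DMSO; EC50 from variable-slope sigmoidal fit of three replicate plates.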

[3] = normalized to positive control, with 2 μM co-corrector
[4] = CSE-HRP assay, test compound with 2 μM co-corrector
[5] = normalized to on-plate positive control, with 2 μM co-corrector
[6] = normalized to on-plate positive control

Maximum % activity (with co-corrector) [1, 3] | EC50 ([1]; with 2 μM co-corrector) [µM] | Emax ([2]; normalized to positive control) [%] | EC50 [2] [µM] | EC50 [1, 4] [µM] | Maximum % activity (with co-corrector) [1, 5] | EC50 ([2]; CSE-HRP assay) [µM] | Emax [2, 6] [%] | SMILES
+++ (≥350) | 3 to 10 | ≥ 150 | 3 to 10 | – | – | – | – | CCOc1ccc2c(S(=O)(=O)NC(=O)C3CCc4c(Br)ccc(OC)c43)cccc2n1 (stereo not drawn) [II-123]
– | – | – | – | 3 to 10 | ++ (≥150 and <350) | 3 to 10 | < 50 | COc1ccc2c(n1)CCC2C(=O)NS(=O)(=O)c1cccc2ccccc12 (stereo not drawn) [III-178]
+ (<150) | ≥ 10 | < 50 | ≥ 10 | – | – | – | – | CCOc1ccc2nc(S(=O)(=O)NC(=O)C3CCc4c(OC)cccc43)sc2c1 (stereo not drawn) [III-53]
+++ (≥350) | < 3 | ≥ 150 | < 3 | – | – | – | – | COc1ccc(C2CCC2)c2c1CCCC2C(=O)NS(=O)(=O)c1cccc2ccccc12 (stereo not drawn) [Example I-33, 8-cyclobutyl-5-methoxy-N-(naphthalene-1-sulfonyl)-1,2,3,4-tetrahydronaphthalene-1-carboxamide]
+++ (≥350) | < 3 | ≥ 150 | 3 to 10 | – | – | – | – | COc1cccc2c1C(C(=O)NS(=O)(=O)c1cccc3ncccc13)CC2(C)C (stereo not drawn) [Example I-152, 7-methoxy-3,3-dimethyl-N-(quinoline-5-sulfonyl)-2,3-dihydro-1H-indene-1-carboxamide]
++ (≥150 and <350) | < 3 | 50 to 150 | < 3 | – | – | – | – | CCC1(C(=O)NS(=O)(=O)c2ccccc2)CCc2c(Cl)cccc21 (stereo not drawn) [II-66]
++ (≥150 and <350) | < 3 | < 50 | < 3 | – | – | – | – | CCC1(C(=O)NS(=O)(=O)c2ccccc2C)CCc2c(Cl)cccc21 (stereo not drawn) [II-32]
+ (<150) | ≥ 10 | < 50 | ≥ 10 | – | – | – | – | COc1cccc2c1CCC2C(=O)NS(=O)(=O)c1c(C)nn(C)c1C (stereo not drawn) [III-11]
+++ (≥350) | < 3 | ≥ 150 | < 3 | – | – | – | – | COc1ccc(Br)c2c1C(C(=O)NS(=O)(=O)c1cccc3ncc(C)n13)CC2 (stereo not drawn) [Example I-100, 4-bromo-7-methoxy-N-(3-methylimidazo[1,2-a]pyridine-5-sulfonyl)-2,3-dihydro-1H-indene-1-carboxamide]
+++ (≥350) | < 3 | ≥ 150 | 3 to 10 | – | – | – | – | COc1ccc(C2CCC2)c2c1C(C(=O)NS(=O)(=O)c1cccc3cnn(C)c13)CC2 (stereo not drawn) [Example I-99, 4-cyclobutyl-7-methoxy-N-(1-methyl-1H-indazole-7-sulfonyl)-2,3-dihydro-1H-indene-1-carboxamide]
+++ (≥350) | 3 to 10 | ≥ 150 | 3 to 10 | – | – | – | – | O=C(NS(=O)(=O)c1cccc2ccccc12)C1CCCc2c(Cl)ccc(OCCN3CCOCC3)c21 (stereo not drawn) [II-136]
+++ (≥350) | < 3 | ≥ 150 | < 3 | – | – | – | – | O=C(NS(=O)(=O)c1cccc2ccccc12)C1(Cc2cccc(C(F)(F)F)n2)CCc2c(Cl)cccc21 (stereo not drawn) [Example I-35, 4-chloro-N-(naphthalene-1-sulfonyl)-1-{[6-(trifluoromethyl)pyridin-2-yl]methyl}-2,3-dihydro-1H-indene-1-carboxamide]
+++ (≥350) | 3 to 10 | ≥ 150 | 3 to 10 | – | – | – | – | COc1ccc(-c2cccc(OC(F)(F)F)c2)c2c1C(C(=O)NS(=O)(=O)c1cccc3ccccc13)CCC2 (stereo not drawn) [II-119]
+++ (≥350) | < 3 | ≥ 150 | < 3 | – | – | – | – | COc1ccc(C2CCC2)c2c1[C@H](C(=O)NS(=O)(=O)c1cccc3c1CCCN3)CC2 [Example I-129, (1R)-4-cyclobutyl-7-methoxy-N-(1,2,3,4-tetrahydroquinoline-5-sulfonyl)-2,3-dihydro-1H-indene-1-carboxamide]
+++ (≥350) | < 3 | ≥ 150 | < 3 | – | – | – | – | COc1ccc(C2CCC2)c2c1C(C(=O)NS(=O)(=O)c1cccn3nccc13)C2 (stereo not drawn) [Example I-136, 2-cyclobutyl-5-methoxy-N-(pyrazolo[1,5-a]pyridine-4-sulfonyl)bicyclo[4.2.0]octa-1,3,5-triene-7-carboxamide]
+++ (≥350) | 3 to 10 | ≥ 150 | 3 to 10 | – | – | – | – | COc1cccc2c1CCC2C(=O)NS(=O)(=O)c1cccc2ccccc12 (stereo not drawn) [Example I-1, 4-methoxy-N-(naphthalene-1-sulfonyl)-2,3-dihydro-1H-indene-1-carboxamide]
– | – | – | – | ≥ 10 | + (<150) | ≥ 10 | < 50 | Cc1ccccc1S(=O)(=O)NC(=O)C1Cc2ccccc21 (stereo not drawn) [III-176]
+++ (≥350) | < 3 | 50 to 150 | 3 to 10 | – | – | – | – | O=C(NS(=O)(=O)c1cccc2ccccc12)C1CCCc2c(OC3CCCC3)ccc(Br)c21 (stereo not drawn) [II-88]
– | – | – | – | ≥ 10 | + (<150) | ≥ 10 | < 50 | CCC1(C(=O)NS(=O)(=O)c2cccc(F)c2C#N)CCc2c(Cl)cccc21 (stereo not drawn) [III-127]
++ (≥150 and <350) | 3 to 10 | < 50 | 3 to 10 | – | – | – | – | Cc1ccccc1S(=O)(=O)NC(=O)[C@H]1CCCc2ccccc21 [II-14]
+++ (≥350) | < 3 | ≥ 150 | 3 to 10 | – | – | – | – | COc1ccc(C2CCCO2)c2c1C(C(=O)NS(=O)(=O)c1cccc3ccccc13)CC2 (stereo not drawn) [Example I-138, 7-methoxy-N-(naphthalene-1-sulfonyl)-4-(oxolan-2-yl)-2,3-dihydro-1H-indene-1-carboxamide]
++ (≥150 and <350) | 3 to 10 | < 50 | ≥ 10 | – | – | – | – | Cc1ccccc1S(=O)(=O)NC(=O)C1CCc2c(-c3ccc(F)nc3)cccc21 (stereo not drawn) [III-89]
++ (≥150 and <350) | 3 to 10 | 50 to 150 | 3 to 10 | – | – | – | – | Cc1ccc2c(c1)CCC2(C)C(=O)NS(=O)(=O)c1ccccc1C (stereo not drawn) [II-22]
+++ (≥350) | 3 to 10 | ≥ 150 | 3 to 10 | – | – | – | – | COc1ncc(C2CCC2)c2c1C(C(=O)NS(=O)(=O)c1cccc3ccccc13)CC2 (stereo not drawn) [Example I-111, 4-cyclobutyl-1-methoxy-N-(naphthalene-1-sulfonyl)-6,7-dihydro-5H-cyclopenta[c]pyridine-7-carboxamide]
+++ (≥350) | 3 to 10 | ≥ 150 | 3 to 10 | – | – | – | – | COc1ccc(C2CCC2)c2c1[C@H](C(=O)NS(=O)(=O)c1cccc3ncccc13)CC2 [Example I-103, (1R)-4-cyclobutyl-7-methoxy-N-(quinoline-5-sulfonyl)-2,3-dihydro-1H-indene-1-carboxamide]
– | – | – | – | < 3 | +++ (≥350) | < 3 | 50 to 150 | COc1ccc(-c2cncnc2)c2c1C(C(=O)NS(=O)(=O)c1cccc3ccccc13)CCC2 (stereo not drawn) [III-164]
+ (<150) | ≥ 10 | < 50 | ≥ 10 | – | – | – | – | COc1cccc2c1CCC2C(=O)NS(=O)(=O)c1cc([N+](=O)[O-])ccc1C (stereo not drawn) [III-30]
